Laboratory results from the CheMixHub viscosity set.
“And” between values parts separate entries of the source, which are not always exact repeats. Equal values may be shown once.

CC(C)CCCC(C)CCCC(C)CCCCC(C)CCCC(C)CCCC(C)C (configuration not stated)
100 kPa
Conditions | viscosity [mPa·s]
293.15 K | 35.3
313.15 K | 15.4

CCc1cccc(CC)c1
102 kPa
Conditions | viscosity [mPa·s]
293.15 K | 0.852
303.15 K | 0.751
313.15 K | 0.668
323.15 K | 0.598

Cc1ccc(C)cc1
Conditions | viscosity
293.15 K, 101 kPa | 0.5756 mPa·s and 0.6402 mPa·s and 0.6388 mPa·s
293.15 K, 101.2 kPa | 0.6517 mPa·s
293.15 K, 101.3 kPa | 0.6332 mPa·s and 0.6589 mPa·s
298 K, 101.3 kPa | 0.615 mPa·s
298.15 K, 100 kPa | 0.6118 mPa·s
298.15 K, 101.2 kPa | 0.6083 mPa·s
303.15 K, 101.2 kPa | 0.5753 mPa·s
303.15 K, 101.3 kPa | 0.5702 mPa·s
303.15 K, 101.32 kPa | 0.564 mPa·s
303.15 K, 101.33 kPa | 0.5694 mPa·s and 0.519 mPa·s and 0.57 mPa·s
307.35 K, 101.33 kPa | 0.539 mPa·s
308.15 K, 100 kPa | 0.5508 mPa·s
308.15 K, 101.2 kPa | 0.5364 mPa·s
308.15 K, 101.3 kPa | 0.5381 mPa·s
313.15 K, 101.2 kPa | 0.5094 mPa·s
313.15 K, 101.3 kPa | 0.5309 mPa·s and 0.5117 mPa·s and 0.5086 mPa·s
313.15 K, 101.33 kPa | 0.5064 mPa·s
318 K, 101.3 kPa | 0.4919 mPa·s
318.15 K, 101 kPa | 0.4925 mPa·s and 0.462 mPa·s and 0.483 mPa·s
318.15 K, 101.2 kPa | 0.5049 mPa·s
318.15 K, 101.3 kPa | 0.4817 mPa·s
323.15 K, 101.3 kPa | 0.4738 mPa·s and 0.4571 mPa·s

NCCO.O=CO
viscosity
Conditions | 293.15 K | 298.15 K | 303.15 K | 308.15 K | 313.15 K | 318.15 K | 323.15 K
100 kPa | – | 79.13 mPa·s and 79.13 mPa·s | 63.01 mPa·s and 63.01 mPa·s | 51.79 mPa·s and 51.79 mPa·s | 43.03 mPa·s and 43.03 mPa·s | 36.34 mPa·s and 36.34 mPa·s | 30.76 mPa·s and 30.76 mPa·s
101 kPa | 268.9 mPa·s | 198.1 mPa·s | 149.5 mPa·s | 115.4 mPa·s | 91 mPa·s | 72.85 mPa·s | 58.64 mPa·s

O=Cc1ccccc1
viscosity
Conditions | 293.15 K | 298.1 K | 298.15 K | 303.15 K | 308.15 K | 313.15 K | 318.15 K | 323.15 K
100 kPa | 1.495 mPa·s | – | – | – | – | – | – | –
101 kPa | – | 1.37 mPa·s | 1.392 mPa·s | 1.26 mPa·s | 1.215 mPa·s | – | 0.9051 mPa·s and 1.051 mPa·s | 0.975 mPa·s
101.33 kPa | 1.397 mPa·s | – | 1.445 mPa·s and 1.321 mPa·s and 1.385 mPa·s | 1.278 mPa·s | 1.13 mPa·s and 1.178 mPa·s | 1.17 mPa·s | 1.034 mPa·s | 1.072 mPa·s

OCCOCCO
viscosity
Conditions | 293.15 K | 298.1 K | 298.15 K | 308.15 K | 313.15 K
101 kPa | 38.82 mPa·s and 38.82 mPa·s and 38.82 mPa·s (2×) | 27.87 mPa·s | 27.15 mPa·s and 27.14 mPa·s | 17.26 mPa·s | 14.81 mPa·s
101.32 kPa | 33.6 mPa·s | – | – | – | 12.8 mPa·s
101.33 kPa | – | – | 26.81 mPa·s | – | –

[Cl-].[Cl-].[Cl-].[Cl-].[Ge+4]
101 kPa
Conditions | viscosity [mPa·s]
293.15 K | 0.599
298.15 K | 0.589
303.15 K | 0.561
313.15 K | 0.516

c1ccsc1
viscosity
Conditions | 293.15 K | 298.15 K | 303.15 K | 308.15 K | 313.15 K | 318.15 K | 323.15 K
100 kPa | – | 0.655 mPa·s | – | 0.585 mPa·s | – | 0.525 mPa·s | –
101 kPa | 0.653 mPa·s | 0.62 mPa·s and 0.615 mPa·s | 0.58 mPa·s | 0.54 mPa·s and 0.545 mPa·s | 0.518 mPa·s | 0.48 mPa·s and 0.491 mPa·s | 0.464 mPa·s
